# Results from patent publication US20160002248A1, “GLS1 INHIBITORS FOR TREATING DISEASE” (Board of Regents, The University of Texas System, priority 2014, published 2016).
# Tests used:
# [1] = molecular target: T1, purified recombinant human GAC (GLS1) (Homo sapiens, UniProt O94925); assay: GLS1 Enzymatic Activity Assay (dual-coupled enzymatic assay); format: biochemical
# T1 sequence (O94925 55-598 isoform O94925-3 limits assumed): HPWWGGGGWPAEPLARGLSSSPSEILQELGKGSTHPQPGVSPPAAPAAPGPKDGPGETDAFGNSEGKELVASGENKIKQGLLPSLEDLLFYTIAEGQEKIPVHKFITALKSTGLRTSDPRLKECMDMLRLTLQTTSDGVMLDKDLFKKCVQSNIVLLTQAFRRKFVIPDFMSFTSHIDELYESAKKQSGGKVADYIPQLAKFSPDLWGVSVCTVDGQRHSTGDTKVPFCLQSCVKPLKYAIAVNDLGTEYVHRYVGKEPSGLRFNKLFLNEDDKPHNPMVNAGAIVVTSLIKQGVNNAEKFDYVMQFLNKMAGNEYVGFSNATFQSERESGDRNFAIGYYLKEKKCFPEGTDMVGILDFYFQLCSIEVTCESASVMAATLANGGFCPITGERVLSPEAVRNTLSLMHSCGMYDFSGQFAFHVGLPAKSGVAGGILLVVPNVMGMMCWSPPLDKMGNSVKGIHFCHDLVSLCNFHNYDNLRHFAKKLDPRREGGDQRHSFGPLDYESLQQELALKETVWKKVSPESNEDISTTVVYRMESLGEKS
# Protocol: GLS1 Enzymatic Activity Assay
# The inhibition of purified recombinant human GAC by varying concentrations of inhibitors is assessed via a dual-coupled enzymatic assay. The glutamate produced by the glutaminase reaction is used by glutamate oxidase to produce α-ketoglutarate, ammonia, and hydrogen peroxide, with this hydrogen peroxide subsequently being used by horseradish peroxidase to produce resorufin in the presence of Amplex UltraRed. The assay buffer consisted of 50 mM Hepes (pH 7.4), 0.25 mM EDTA and 0.1 mM Triton X-100. GAC was incubated with potassium phosphate (10 minutes at room temperature) prior to incubation with inhibitor (10 minutes at room temperature). The final reaction conditions were as follows: 2 nM GAC, 50 mM potassium phosphate, 100 mU/mL glutamate oxidase (Sigma), 1 mM glutamine (Sigma), 100 mU/mL horseradish peroxidase (Sigma), 75 μM Amplex UltraRed (Life Technologies), and 1% (v/v) DMSO. The production of resorufin was monitored on a Perkin Elmer Envision plate reader (excitation 530 nm, emission 590 nm) either in a kinetics or endpoint mode (at 20 minutes). IC50 values were calculated using a four-parameter logistic curve fit.
# A549 cells = assay: Proliferation Assay (A549 cell viability, Cell Titer Fluor); format: cell-based; conditions: Homo sapiens, 72 hours
# Protocol: A549 cells were routinely maintained in RPMI 1640 media (Gibco catalog number 11875-093) supplemented with 10% dialyzed fetal bovine serum using a humidified incubator (37° C., 5% CO2 and ambient O2). In preparation for the viability assay, cells were inoculated into 384-well black CulturPlates (Perkin Elmer) at a density of 1000 cells/well in a volume of 40 uL. Following a 24-hour incubation at 37° C., 5% CO2 and ambient O2, cells were treated with compound (10 uL) in a final DMSO concentration of 0.5% (v/v). The microplates were then incubated for 72 hours (37° C., 5% CO2 and ambient O2). Cell Titer Fluor (Promega) was subsequently added (10 uL of 6× reagent) and mixed for 15 minutes at room temperature. The plates were then incubated for 30 minutes (37° C., 5% CO2 and ambient O2) and fluorescence was subsequently read on the Perkin Elmer Envision plate reader. EC50 values were calculated using a four-parameter logistic curve fit.
Compound,IC50 [1],EC50 (A549 cells)
"CC(C)(O)C(=O)N1CC(c2cc3cc(CCCCn4cc(C(=O)NCc5cc(OC(F)(F)F)ccc5F)nn4)nnc3[nH]2)C1 [Example 133, N-{[2-fluoro-5-(trifluoromethoxy)phenyl]methyl}-1-(4-{6-[1-(2-hydroxy-2-methylpropanoyl)azetidin-3-yl]-7H-pyrrolo[2,3-c]pyridazin-3-yl}butyl)-1H-1,2,3-triazole-4-carboxamide]",< 100 nM,100 to 500 nM
"COc1ncccc1CNC(=O)c1cn(CCCCc2cc3cc(C4CC4)[nH]c3nn2)nn1 [Example 49, 1-(4-{6-cyclopropyl-7H-pyrrolo[2,3-c]pyridazin-3-yl}butyl)-N-[(2-methoxypyridin-3-yl)methyl]-1H-1,2,3-triazole-4-carboxamide]",500 to 5000 nM,500 to 5000 nM
"O=C(NCCC(F)(F)F)c1nnc(CCCCc2cc3cc(Cc4ccccc4)[nH]c3nn2)s1 [Example 83, 5-(4-{6-benzyl-7H-pyrrolo[2,3-c]pyridazin-3-yl}butyl)-N-(3,3,3-trifluoropropyl)-1,3,4-thiadiazole-2-carboxamide]",100 to 500 nM,> 5000 nM
"COc1ccnc(CNC(=O)c2cn(CCCCc3cc4cc(C5CC5)[nH]c4nn3)nn2)c1 [Example 39, 1-(4-{6-cyclopropyl-7H-pyrrolo[2,3-c]pyridazin-3-yl}butyl)-N-[(4-methoxypyridin-2-yl)methyl]-1H-1,2,3-triazole-4-carboxamide]",100 to 500 nM,100 to 500 nM
"Cc1ccncc1CNC(=O)c1cn(CCCCc2cc3cc(C4CC4)[nH]c3nn2)nn1 [Example 47, 1-(4-{6-cyclopropyl-7H-pyrrolo[2,3-c]pyridazin-3-yl}butyl)-N-[(4-methylpyridin-3-yl)methyl]-1H-1,2,3-triazole-4-carboxamide]",100 to 500 nM,500 to 5000 nM
"O=C(NCc1ccccn1)c1cn(CCCCc2cc3c(Cc4ccc(Cl)cc4)c(C4CC4)[nH]c3nn2)nn1 [Example 106, 1-(4-{5-[(4-chlorophenyl)methyl]-6-cyclopropyl-7H-pyrrolo[2,3-c]pyridazin-3-yl}butyl)-N-(pyridin-2-ylmethyl)-1H-1,2,3-triazole-4-carboxamide]",< 100 nM,100 to 500 nM
"O=C(NCc1cccc(OC(F)(F)F)c1)c1cn(CCCCc2cc3cc[nH]c3nn2)nn1 [Example 27, 1-(4-{7H-pyrrolo[2,3-c]pyridazin-3-yl}butyl)-N-{[3-(trifluoromethoxy)phenyl]methyl}-1H-1,2,3-triazole-4-carboxamide]",100 to 500 nM,500 to 5000 nM
"Cc1ccc(CNC(=O)c2cn(CCCCc3cc4c(C#N)c(C5CC5)[nH]c4nn3)nn2)cn1 [Example 112, 1-(4-{5-cyano-6-cyclopropyl-7H-pyrrolo[2,3-c]pyridazin-3-yl}butyl)-N-[(6-methylpyridin-3-yl)methyl]-1H-1,2,3-triazole-4-carboxamide]",< 100 nM,500 to 5000 nM
"CC(C)Cc1cc2cc(CCCCn3cc(C(=O)NCc4ccccc4)nn3)nnc2[nH]1 [Example 13, N-benzyl-1-(4-(6-isobutyl-7H-pyrrolo[2,3-c]pyridazin-3-yl)butyl)-1H-1,2,3-triazole-4-carboxamide]",100 to 500 nM,500 to 5000 nM
"CC(C)(C)OC(=O)N1CC=C(c2c(C3CC3)[nH]c3nnc(CCCCn4cc(C(=O)NCc5cccc(OC(F)(F)F)c5)nn4)cc23)CC1 [Example 197, tert-butyl 4-(6-cyclopropyl-3-{4-[4-({[3-(trifluoromethoxy)phenyl]methyl}carbamoyl)-1H-1,2,3-triazol-1-yl]butyl}-7H-pyrrolo[2,3-c]pyridazin-5-yl)-1,2,3,6-tetrahydropyridine-1-carboxylate]",< 100 nM,< 100 nM
"CC(C)S(=O)(=O)N1CC(c2cc3cc(CCCCn4cc(C(=O)NCc5cc(OC(F)(F)F)ccc5F)nn4)nnc3[nH]2)C1 [Example 230, N-{[2-fluoro-5-(trifluoromethoxy)phenyl]methyl}-1-(4-{6-[1-(propane-2-sulfonyl)azetidin-3-yl]-7H-pyrrolo[2,3-c]pyridazin-3-yl}butyl)-1H-1,2,3-triazole-4-carboxamide]",< 100 nM,100 to 500 nM
"NS(=O)(=O)c1cccc(-c2c(C3CC3)[nH]c3nnc(CCCCn4cc(C(=O)NCc5cccc(OC(F)(F)F)c5)nn4)cc23)c1 [Example 181, 1-{4-[6-cyclopropyl-5-(3-sulfamoylphenyl)-7H-pyrrolo[2,3-c]pyridazin-3-yl]butyl}-N-{[3-(trifluoromethoxy)phenyl]methyl}-1H-1,2,3-triazole-4-carboxamide]",< 100 nM,500 to 5000 nM
"CC(C)(O)c1ccc(CNC(=O)c2cn(CCCCc3cc4c(C5CC5)c(-c5ccccc5F)[nH]c4nn3)nn2)cn1 [Example 174, 1-{4-[5-cyclopropyl-6-(2-fluorophenyl)-7H-pyrrolo[2,3-c]pyridazin-3-yl]butyl}-N-{[6-(2-hydroxypropan-2-yl)pyridin-3-yl]methyl}-1H-1,2,3-triazole-4-carboxamide]",< 100 nM,100 to 500 nM
"O=C(NCc1cccc(OC(F)(F)F)c1)c1cn(CCCCc2cc3cc(-c4ccccc4F)[nH]c3nn2)nn1 [Example 204, 1-{4-[6-(2-fluorophenyl)-7H-pyrrolo[2,3-c]pyridazin-3-yl]butyl}-N-{[3-(trifluoromethoxy)phenyl]methyl}-1H-1,2,3-triazole-4-carboxamide]",< 100 nM,500 to 5000 nM
"O=C(NCc1cccc(OC(F)(F)F)c1)c1cn(CCCCc2cc3c(-c4ccccn4)c(C4CC4)[nH]c3nn2)nn1 [Example 143, 1-{4-[6-cyclopropyl-5-(pyridin-2-yl)-7H-pyrrolo[2,3-c]pyridazin-3-yl]butyl}-N-{[3-(trifluoromethoxy)phenyl]methyl}-1H-1,2,3-triazole-4-carboxamide]",< 100 nM,< 100 nM
"COc1cccc(-c2c(C3CC3)[nH]c3nnc(CCCCn4cc(C(=O)NCc5ccccn5)nn4)cc23)c1 [Example 121, 1-{4-[6-cyclopropyl-5-(3-methoxyphenyl)-7H-pyrrolo[2,3-c]pyridazin-3-yl]butyl)-N-(pyridin-2-ylmethyl)-1H-1,2,3-triazole-4-carboxamide]",< 100 nM,100 to 500 nM
"Cc1c(C2CC2)[nH]c2nnc(CCCCn3cc(C(=O)NCc4ccccn4)nn3)cc12 [Example 109, 1-(4-(6-cyclopropyl-5-methyl-7H-pyrrolo[2,3-c]pyridazin-3-yl)butyl)-N-(pyridin-2-ylmethyl)-1H-1,2,3-triazole-4-carboxamide]",100 to 500 nM,500 to 5000 nM
"CC(C)(O)c1ccc(CNC(=O)c2cn(CCCCc3cc4c(-c5ccc(C(F)(F)F)cc5)c(C5CC5)[nH]c4nn3)nn2)cn1 [Example 162, 1-(4-{6-cyclopropyl-5-[4-(trifluoromethyl)phenyl]-7H-pyrrolo[2,3-c]pyridazin-3-yl}butyl)-N-{[6-(2-hydroxypropan-2-yl)pyridin-3-yl]methyl}-1H-1,2,3-triazole-4-carboxamide]",< 100 nM,100 to 500 nM
"O=C(NCC(F)(F)F)c1nnc(CCCCc2cc3cc(Cc4ccccc4)[nH]c3nn2)s1 [Example 81, 5-(4-{6-benzyl-7H-pyrrolo[2,3-c]pyridazin-3-yl}butyl)-N-(2,2,2-trifluoroethyl)-1,3,4-thiadiazole-2-carboxamide]",100 to 500 nM,> 5000 nM
"Cc1ccc(CNC(=O)c2cn(CCCCc3cc4c(C5=CCN(C(=O)OC(C)(C)C)CC5)c(C5CC5)[nH]c4nn3)nn2)cn1 [Example 198, tert-butyl 4-(6-cyclopropyl-3-[4-(4-{[(6-methylpyridin-3-yl)methyl]carbamoyl}-1H-1,2,3-triazol-1-yl)butyl]-7H-pyrrolo[2,3-c]pyridazin-5-yl}-1,2,3,6-tetrahydropyridine-1-carboxylate]",< 100 nM,500 to 5000 nM
"O=C(Cc1cccc(OC(F)(F)F)c1)Nc1nnc(CCCCc2cc3cc[nH]c3nn2)s1 [Example 63, N-[5-(4-{7H-pyrrolo[2,3-c]pyridazin-3-yl}butyl)-1,3,4-thiadiazol-2-yl]-2-[3-(trifluoromethoxy)phenyl]acetamide]",100 to 500 nM,500 to 5000 nM
